{"source": "paper PMC9774438", "about": "“Effects of Synthetic Short Cationic Antimicrobial Peptides on the Catalytic Activity of Myeloperoxidase, Reducing Its Oxidative Capacity” (Antioxidants, 2022)", "key": {"myeloperoxidase (MPO) [1]": {"biological_target": "T1, myeloperoxidase (MPO) (Homo sapiens, UniProt P05164)", "T1 construct": "Native myeloperoxidase (MPO) was obtained from human leukocyte extract by successive chromatography on heparin-Sepharose and phenyl-agarose; from tissue; host or cells: human leukocyte extract", "T1 sequence (P05164 279-745 limits assumed)": "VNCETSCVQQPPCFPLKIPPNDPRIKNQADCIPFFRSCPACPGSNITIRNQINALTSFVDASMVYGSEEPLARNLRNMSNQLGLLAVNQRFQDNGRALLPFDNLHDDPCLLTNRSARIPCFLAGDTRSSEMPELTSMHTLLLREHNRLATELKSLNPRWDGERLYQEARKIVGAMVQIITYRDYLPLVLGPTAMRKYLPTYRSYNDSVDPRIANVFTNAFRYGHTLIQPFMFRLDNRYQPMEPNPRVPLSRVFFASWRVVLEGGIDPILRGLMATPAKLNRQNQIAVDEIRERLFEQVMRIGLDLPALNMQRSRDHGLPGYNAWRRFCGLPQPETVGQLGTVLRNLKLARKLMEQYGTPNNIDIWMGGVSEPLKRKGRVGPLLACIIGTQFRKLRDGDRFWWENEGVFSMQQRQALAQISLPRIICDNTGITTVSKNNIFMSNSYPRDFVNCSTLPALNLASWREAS", "T1 sequence (P05164 165-273 limits assumed)": "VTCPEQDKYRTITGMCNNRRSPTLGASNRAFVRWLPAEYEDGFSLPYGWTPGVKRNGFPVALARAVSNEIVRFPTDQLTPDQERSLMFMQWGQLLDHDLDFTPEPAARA", "test": "Dityrosine fluorescence detection during MPO/H2O2 reaction", "type": "biochemical", "settings": "40 μM peptide, 0.4 μM MPO heme, 50 μM H2O2, 10 mM Na-phosphate pH 7.4, 0.2 mM DTPA, λex 315 nm", "method": "Formation of dityrosine during the MPO reaction with CAMPs was monitored by fluorescence on a CM 2203 spectrofluorometer (Minsk, Belarus) with an excitation wavelength of 315 nm. Emission spectra were recorded between 350 nm and 500 nm, with the maximum being at 405–410 nm. MPO (0.4 μM) in a 1 mL cuvette was mixed with CAMP (40 μM) at pH 7.4 in 10 mM Na-phosphate buffer supplemented with 0.2 mM DTPA, and the starting emission spectrum was recorded. Succeeding spectra were taken at time intervals following the addition of 50 μM H2O2 to the continuously stirred reaction mixture.\nSince dityrosine is an intensely fluorescent compound, the fluorescence method can be applied to detect its formation. MPO (0.4 µM heme) and tyrosine-containing Hm-AMP2 (40 µM) or HM-AMP8 (40 µM) were mixed in a cuvette in 10 mM Na-phosphate buffer, pH 7.4. No emission peak characteristic of dityrosine was observed. Succeeding spectra were recorded at time intervals after H2O2 (50 µM) addition. Dityrosine formation was monitored by the increase in fluorescence intensity."}, "myeloperoxidase (MPO) [2]": {"biological_target": "T1, myeloperoxidase (MPO)", "test": "MPO peroxidase activity (Amplex Red assay)", "type": "biochemical", "settings": "0.8–50 μM peptide, 8 nM MPO heme, 50 μM Amplex Red, 25 μM H2O2, 50 mM K-phosphate pH 7.4", "method": "MPO peroxidase activity was evaluated fluorometrically using Amplex Red^TM reagent which was oxidized by MPO to the fluorescent resorufin (λex = 530 nm, λem = 590 nm). The assay was performed in 96-plate format. The final reaction mixture in 50 mM K-phosphate buffer (pH 7.4) was as follows: MPO, 8 nM heme; peptide, […]; H2O2, 25 μM; Amplex Red reagent, 50 μM. MPO was preincubated with peptides for 5 min in a volume of 100 μl. Then, Amplex Red was added, and the enzymatic reaction was initiated by adding H2O2 (a final probe volume of 200 μL per well). The fluorescence measurement was made with a CLARIOstar multimodal plate reader (BMG Labtech, Ortenberg, Germany) at 5 min after the beginning of the reaction. To determine the type of CAMP-induced inhibition, KM and Vmax were obtained by varying substrates of MPO: Amplex Red in a final concentration from 1 to 62.5 μM, or H2O2 in a final concentration from 0.625 to 20 μM.\n(§1) The Hannes-Wolf plots were made as ([Substrate]/V = f([Substrate]). KM was equal in magnitude to the intercept made on the abscissa axis by the approximating straight line; Vmax was calculated as a reciprocal value of the straight-line slope. The inhibition constant (Ki) for noncompetitive inhibition was calculated as follows: Ki = [I]/((Vmax − Vmax’)/Vmax’); Ki for competitive inhibition was calculated as follows: Ki = [I]/((KM’ − KM)/KM); Ki for mixed inhibition was calculated as follows: Ki = [I]/(((KM’ − KM)/KM)^2 + ((Vmax − Vmax’)/Vmax’))^2)^0.5; and Ki for uncompetitive inhibition was calculated as follows: Ki = [I]/(((KM − KM’)/KM’)^2 + ((Vmax – Vmax’)/Vmax’))^2)^0.5, where [I]—concentration of inhibitor (CAMP), KM—Michaelis constant without inhibitor, Vmax—maximal rate without inhibitor, KM’—Michaelis constant in the presence of inhibitor, Vmax’—maximal rate in the presence of inhibitor.\nFrom the experiments with varying concentrations of H2O2 (0.01–200 μM) and Amplex Red (6.25–100 μM), the optimal concentrations of 25 μM H2O2 and 50 μM Amplex Red were chosen for further work. The 0.8–50 μM concentration range (corresponding to 100–6250 peptide molecules per heme) was used to determine the concentration dependence of the effect of CAMPs on peroxidase activity of MPO."}, "myeloperoxidase (MPO) [3]": {"biological_target": "T1, myeloperoxidase (MPO)", "test": "MPO chlorinating activity (Celestine Blue B assay)", "type": "biochemical", "settings": "0.008–8 μM peptide, 0.8 nM MPO heme, 200 μM CB, 150 mM NaCl, 50 μM H2O2, 50 mM Na-acetate pH 5.5", "method": "MPO chlorinating activity was evaluated fluorometrically using Celestine Blue B (CB) which was oxidized to fluorescent glycol (λex = 487 nm, λem = 578 nm) by taurine N-chloramine produced in the reaction of taurine with HOCl generated by MPO [39]. The assay was performed in 96-plate format. MPO was preincubated with peptides for 5 min in a volume of 100 μL, with the concentrations being: MPO, 1.6 nM heme and peptide, 16 nM–16 μM. Then, 100 μL aliquots of CB-containing mix (CB, 400 µM; H2O2, 100 µM; taurine, 4 mM; KI, 10 µM; NaCl, 300 mM; 50 mM Na-acetate buffer, pH 5.5) were added to MPO/peptide and to 100 μL of HOCl standards (0–150 μM). The fluorescence measurement was made with a CLARIOstar multimodal plate reader (BMG Labtech, Ortenberg, Germany) at 15 min after the reaction started. Fluorescence intensity detected for HOCl standards of HOCl was used for calculating the chlorinating activity as mole of HOCl per mole of MPO heme per second. To determine the type of CAMP-induced inhibition, KM and Vmax were obtained by varying substrates of MPO: NaCl in a final concentration from 25 to 300 mM, or H2O2 in a final concentration from 5 to 80 µM.\nas §1\nChlorinating activity is a distinctive feature of MPO as compared with other peroxidases and it is an important property, enabling MPO to combat microbes. We tested whether the inhibitory effects of pept_1545 and Hm-AMP8 on peroxidase activity extend to MPO chlorinating activity. Chlorinating activity was measured using a fluorometric CB-based assay. To determine the concentration dependence of the effect of CAMPs on MPO chlorinating activity, the 0.008–8 μM concentration range (corresponding to 10–10,000 peptide molecules per heme) was used."}, "[4]": {"settings": "10 mM Na-phosphate pH 7.4; limits peptide/heme ratio to 45:1"}}, "note": "Entries after “also recorded” stand apart in the source; their conditions may differ."}
{"sequence": "EKRWRRLIFNYF [Hm-AMP2]", "values": [{"measurement": "dityrosine formation (fluorescence)", "setting": "myeloperoxidase (MPO) [1]", "result": "time-dependent generation of dityrosine; also recorded: diY formation"}, {"measurement": "effect on MPO peroxidase activity", "setting": "myeloperoxidase (MPO) [2]", "result": "no inhibition; also recorded: No effect"}, {"measurement": "effect on MPO chlorinating activity", "setting": "myeloperoxidase (MPO) [3]", "result": "no significant effect"}, {"measurement": "solubility in phosphate buffer", "setting": "[4]", "result": "poor solubility"}]}
